From paper PMC12013085, “Peptides targeting RAB11A–FIP2 complex inhibit HPIV3, RSV, and IAV replication as broad-spectrum antivirals” (Cell & Bioscience, 2025)
Like-named read-outs stand apart in the source and are kept apart here.

Key:
HPIV3 VLPs in 293T cells = test: HPIV3 VLP budding and plasma membrane fraction assay, WB; format: cell-based; settings: 293T cells transfected with N, P, M plasmids 30 h, inhibitor for 6 h
Protocol: Data are presented as means ± SEM
The cell lysates were prepared as described for the Western blot (WB) analysis. The supernatant was harvested and clarified by centrifugation at 12,000×g for 5 min. Subsequently, the supernatant was pelleted through a 20% sucrose cushion at 4 °C at 35,000 rpm for 2 h. The VLP pellets obtained were resuspended in PBS and boiled with SDS-PAGE loading buffer at 100 °C for 10 min. Both the cell lysates and the supernatants were then subjected to WB analysis.
293T cells, cultured in 6-cm dishes, were transfected with the indicated plasmids for 24 h. Cell collection was performed through centrifugation at 500×g for 5 min at 4 °C. Subsequently, cytosol, organelle membrane, and plasma membrane-associated proteins were extracted sequentially using the MinuteTM plasma membrane protein isolation and cell fractionation kit (INVENT), following the manufacturer's instructions.

HPIV3 [1] = test: Late-stage HPIV3 replication with cytoskeleton inhibitors (TCID50, RT-qPCR, WB); settings: HeLa cells infected 18 h, then inhibitor for 6 h; for viral RNA synthesis and protein expression levels: RT-qPCR and WB; for HPIV3 virions in the supernatant / intracellular progeny virus particles: TCID50 at 24 hpi
Protocol: To investigate the role of the cytoskeleton in the later stages of infection, HeLa cells were infected with HPIV3 for 18 h before being treated with the inhibitors for an additional 6 h.
A–D Impact of cytoskeleton inhibitors on HPIV3 replication. HeLa cells infected with HPIV3 for 18 h were treated with Nocodazole (NCZ) or Cytochalasin D (Cyto D). At 24 h post infection (hpi), the virions released in the cell supernatant (A) and the quantity of intracellular progeny virus particles (B) were determined by TCID50 assays. Cells were collected for RT-qPCR analysis of intracellular viral RNA (C), and Western Blot (WB) analysis of intracellular viral protein (D). […] All experiments were independently repeated at least twice with reproducible results. Statistical significance (*p < 0.05, **p < 0.01, ***p < 0.001) was determined by two-sided unpaired t test. Data are means ± SEM

HeLa cells = test: Cellular uptake of FITC-labeled RBD, fluorescent microscopy; format: in vitro ADME; settings: 5 μM FITC-labeled RBD, with or without HPIV3HA-P infection, fluorescent microscopy at 24 hpi
Protocol: Supplementary file 13578_2025_1384_MOESM4_ESM.tif: Supplementary Material 4. Fig. S4. Cell penetration, cytotoxicity, and anti-HPIV3 activity of RBD in different cell lines. (A) Cellular uptake of FITC-labeled RBD in HeLa Cells. HeLa cells were exposed to 5 μM FITC-labeled RBD in the absence or presence of HPIV3HA-P infection, and analyzed by fluorescent microscopy at 24 hpi. RBD (green), HPIV3HA-P (red), and nuclei were stained with DAPI. Scale bar, 50 μm. (B to F) Cytotoxicity of RBD in various cell lines. Cell viability was assessed in HeLa (B), A549 (C), MK2 (D), MDCK (E) and HEp-2 cells (F) treated with increasing concentrations of […] for 24 h using the CCK-8 assay. (G to I) Antiviral efficacy of RBD against HPIV3 in different cell lines. A549 (G), MK2 (H) and MDCK (I) cells were treated with 2-fold-increasing concentrations of RBD for 24h, and viral titers in the cell supernatant were determined by TCID50. […] Data are means ± SEM.

HPIV3 [2] = tested on: HPIV3
[3] = tested on: HeLa, A549, MK2, MDCK and HEp-2 cells; settings: CCK-8, 24 h treatment, in the tested cell lines (HeLa, A549, MK2, MDCK, HEp-2)
WSN virus = format: in vivo, BALB/c mice; settings: 20 mg/kg i.p. once daily Day 0 to Day 4, positive control, n = 5

## COC(=O)Nc1nc2ccc(C(=O)c3cccs3)cc2[nH]1 [NCZ, Nocodazole]
HPIV3 VLPs in 293T cells
  VLP production: modest effect
HPIV3 [1]
  viral RNA synthesis and protein expression levels: unaffected
  HPIV3 virions in the supernatant: significant reduction
  intracellular progeny virus particles: decrease

## THIRELEDYIDNLLVRVMEETPSILRVPRKKRRQRRR [RBD]
HeLa cells
  cell penetration (cellular uptake): efficiently penetrated HeLa cells
HPIV3 [2]; A549 cells
  SI (CC50/IC50), HPIV3, A549: > 21.55
HPIV3 [2]; HeLa cells
  SI (CC50/IC50), HPIV3, HeLa: > 23.08
HPIV3 [2]; MDCK cells
  SI (CC50/IC50), HPIV3, MDCK: > 15.37
HPIV3 [2]; MK2 cells
  SI (CC50/IC50), HPIV3, MK2: > 27.68
HPIV3 [2]; read-out: IC50, HPIV3, A549
  IC50: 3.48 µM
HPIV3 [2]; read-out: IC50, HPIV3, HeLa
  IC50: 3.25 µM
HPIV3 [2]; read-out: IC50, HPIV3, MDCK
  IC50: 4.88 µM
HPIV3 [2]; read-out: IC50, HPIV3, MK2
  IC50: 2.71 µM
[3]
  CC50: > 75 µM

## C=C1[C@@H](C)[C@H]2[C@H](Cc3ccccc3)NC(=O)[C@]23[C@H](OC(C)=O)/C=C/[C@@](C)(O)C(=O)[C@@H](C)C/C=C/[C@H]3[C@@H]1O [Cyto D, Cytochalasin D]
HPIV3 VLPs in 293T cells
  VLP production: substantial impact
HPIV3 [1]
  viral RNA synthesis and protein expression levels: unaffected
  HPIV3 virions in the supernatant: significant reduction
  intracellular progeny virus particles: decrease

## CCOC(=O)C1=C[C@@H](OC(CC)CC)[C@H](NC(C)=O)[C@@H](N)C1 [Osel, Oseltamivir, reference compound]
WSN virus
  protection against morbidity and mortality, IAV (WSN): complete protection against morbidity and mortality

## N=C(N)NCCC[C@H](NC(=O)[C@H](CCCNC(=N)N)NC(=O)[C@H](CCCNC(=N)N)NC(=O)[C@H](CCC(N)=O)NC(=O)[C@H](CCCNC(=N)N)NC(=O)[C@H](CCCNC(=N)N)NC(=O)[C@H](CCCCN)NC(=O)[C@H](CCCCN)NC(=O)[C@@H](N)CCCNC(=N)N)C(=O)O [Tat, reference compound]
HPIV3 [2]; HeLa cells, escalating concentrations, 24 hpi, WB and TCID50
  antiviral effect on HPIV3 infection (in words): no discernible antiviral effect
